Laboratory results from paper PMC3433420 (PLoS ONE, 2012).
pKd: −log10 of the molar value. Residues, ends and D or L forms follow the SMILES beside them.

Experiments:
Assay in all cases: FP saturation binding assay
[1] = target: T1, PIK3R3-N SH2 domain (Homo sapiens, UniProt Q92569); conditions: high-confidence ErbB interactions
T1 construct: 6X His; thioredoxin; made in house; host or cells: E. coli BL21(DE3)pLysS
How it was run: (§1)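 KD values come from least-squares fits of fluorescence polarization (ex 530, em 555 nm), corrected for thioredoxin nonspecific binding and plate baseline, with outliers pruned. Fixed 10 nM labeled peptide met a 0.002–10 µM protein series for 20 min at room temperature in HEPES/KCl/Tween/DTT buffer, pH 7.8.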

[2] = target: T2, PIK3R3-NC tandem SH2 domains (Homo sapiens, UniProt Q92569); conditions: high-confidence ErbB interactions
T2 construct: the tandem protein was included in our analysis with all internal amino acids linking the domains; 6X His; thioredoxin; made in house; host or cells: E. coli BL21(DE3)pLysS
How it was run: as §1

[3] = target: T3, PTK6 SH2 domain (Homo sapiens, UniProt Q13882); conditions: high-confidence ErbB interactions
T3 construct: from the PTK6 SH2 domain; 6X His; thioredoxin; made in house; host or cells: E. coli BL21(DE3)pLysS
T3 sequence (Q13882 78-170 limits assumed): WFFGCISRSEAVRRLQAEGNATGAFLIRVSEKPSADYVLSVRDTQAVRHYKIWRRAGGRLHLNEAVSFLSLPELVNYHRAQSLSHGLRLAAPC
How it was run: as §1

[4] = target: T4, RASA1-NC tandem SH2 domains (Homo sapiens, UniProt P20936); conditions: high-confidence ErbB interactions
T4 construct: the tandem protein was included in our analysis with all internal amino acids linking the domains; 6X His; thioredoxin; made in house; host or cells: E. coli BL21(DE3)pLysS
T4 sequence (P20936 181-441 limits assumed): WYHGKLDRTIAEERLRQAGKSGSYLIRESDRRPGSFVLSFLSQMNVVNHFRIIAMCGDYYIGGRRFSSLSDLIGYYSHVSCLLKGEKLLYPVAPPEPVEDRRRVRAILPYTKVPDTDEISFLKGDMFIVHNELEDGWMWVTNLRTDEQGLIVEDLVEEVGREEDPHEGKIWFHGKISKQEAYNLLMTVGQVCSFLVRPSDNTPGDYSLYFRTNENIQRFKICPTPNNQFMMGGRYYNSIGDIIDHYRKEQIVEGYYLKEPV
How it was run: as §1

[5] = target: PIK3R2-NC tandem SH2 domains (Homo sapiens, UniProt O00459)
Chain of PIK3R2-NC tandem SH2 domains (O00459 330-716 limits assumed): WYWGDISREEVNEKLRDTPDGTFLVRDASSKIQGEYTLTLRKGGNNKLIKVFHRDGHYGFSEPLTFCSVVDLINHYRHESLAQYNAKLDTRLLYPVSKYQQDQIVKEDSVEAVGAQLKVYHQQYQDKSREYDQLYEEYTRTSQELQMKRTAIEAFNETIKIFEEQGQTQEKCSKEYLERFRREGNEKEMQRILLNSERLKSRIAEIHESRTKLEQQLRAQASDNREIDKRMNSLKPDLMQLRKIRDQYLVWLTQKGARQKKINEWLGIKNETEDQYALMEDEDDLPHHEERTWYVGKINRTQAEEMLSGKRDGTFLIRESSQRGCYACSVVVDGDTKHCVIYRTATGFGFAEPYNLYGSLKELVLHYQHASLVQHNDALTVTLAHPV

[6] = target: T5, PTPN11-NC tandem SH2 domains (Homo sapiens, UniProt Q06124)
T5 sequence (Q06124 6-216 limits assumed): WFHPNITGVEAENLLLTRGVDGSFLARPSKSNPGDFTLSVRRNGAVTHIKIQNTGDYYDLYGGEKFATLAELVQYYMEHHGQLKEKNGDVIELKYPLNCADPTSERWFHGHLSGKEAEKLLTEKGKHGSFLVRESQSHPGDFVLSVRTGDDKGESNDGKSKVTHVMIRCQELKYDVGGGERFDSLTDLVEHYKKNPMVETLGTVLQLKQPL

[7] = target: T6, YES1 SH2 domain (Homo sapiens, UniProt P07947); conditions: high-confidence ErbB interactions
T6 construct: 6X His; thioredoxin; made in house; host or cells: BL21(DE3)pLysS E. coli
T6 sequence (P07947 158-255 limits assumed): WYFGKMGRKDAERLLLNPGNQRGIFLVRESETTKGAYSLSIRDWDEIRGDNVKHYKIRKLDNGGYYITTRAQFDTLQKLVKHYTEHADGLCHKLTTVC
How it was run: as §1

[8] = target: T7, LCK SH2 domain (Homo sapiens, UniProt P06239); conditions: high-confidence ErbB interactions
T7 construct: 93 SH2 and 2 PTB domain-containing constructs; 6X His; thioredoxin; made in house; host or cells: E. coli BL21(DE3)pLysS
T7 sequence (P06239 127-224 limits assumed): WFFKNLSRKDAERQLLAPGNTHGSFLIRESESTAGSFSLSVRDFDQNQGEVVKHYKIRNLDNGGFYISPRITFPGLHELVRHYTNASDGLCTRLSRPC
How it was run: as §1

[9] = target: T8, LYN SH2 domain (Homo sapiens, UniProt P07948); conditions: high-confidence ErbB interactions
T8 construct: 93 SH2 and 2 PTB domain-containing constructs; 6X His; thioredoxin; made in house; host or cells: E. coli BL21(DE3)pLysS
T8 sequence (P07948 129-226 limits assumed): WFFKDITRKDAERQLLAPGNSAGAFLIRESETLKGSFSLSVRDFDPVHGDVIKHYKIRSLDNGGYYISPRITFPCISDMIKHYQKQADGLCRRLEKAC
How it was run: as §1

[10] = Protein PIK3R3-N, FP saturation binding, mean over replicate hits
[11] = Protein PIK3R3-NC, FP saturation binding, mean over replicate hits
[12] = Protein YES1, FP saturation binding, mean over replicate hits
[13] = protein LCK, FP, mean of replicate hits
[14] = protein YES1, FP, mean of replicate hits

CC(C)C[C@H](NC(=O)[C@H](Cc1ccc(OP(=O)(O)O)cc1)NC(=O)[C@H](CCC(=O)O)NC(=O)[C@H](CCC(=O)O)NC(=O)[C@H](C)NC(=O)[C@@H](N)CC(=O)O)C(=O)N[C@H](C(=O)N1CCC[C@H]1C(=O)N[C@@H](CCC(N)=O)C(=O)N[C@@H](CCC(N)=O)C(=O)NCC(=O)N[C@@H](Cc1ccccc1)C(=O)N[C@@H](CC(=O)O)C(=O)O)C(C)C [ErbB2 1023 13-mer] (HELM PEPTIDE1{D.A.E.E.[O=C([C@H](Cc1ccc(OP(=O)(O)O)cc1)N[*:1])[*:2]].L.V.P.Q.Q.G.F.D}$$$$V2.0)
pKd [1, 10]: 5.28
pKd [2, 11]: 4.97
pKd ([3]; Protein PTK6, FP saturation binding, mean over replicate hits): 5.42
pKd ([4]; Protein RASA1-NC, FP saturation binding, mean over replicate hits): 5.18
pKd [5]: 5.22
pKd [6]: 4.97

CC(C)[C@H](NC(=O)[C@H](CC(=O)O)NC(=O)[C@@H]1CCCN1C(=O)[C@H](CCC(N)=O)NC(=O)[C@H](CC(N)=O)NC(=O)[C@@H](NC(=O)[C@H](Cc1ccc(OP(=O)(O)O)cc1)NC(=O)[C@H](CCC(=O)O)NC(=O)[C@@H]1CCCN1C(=O)[C@H](CCC(N)=O)NC(=O)[C@@H]1CCCN1)C(C)C)C(=O)N[C@@H](CCCNC(=N)N)C(=O)N[C@@H](CC(=O)O)C(=O)O [ErbB2 1139 13-mer] (HELM PEPTIDE1{P.Q.P.E.[O=C([C@H](Cc1ccc(OP(=O)(O)O)cc1)N[*:1])[*:2]].V.N.Q.P.D.V.R.D}$$$$V2.0)
pKd [1, 10]: 5.04
pKd [2, 11]: 5.29
pKd [7, 12]: 4.87
pKd [5]: 5.24
pKd [6]: 5.06

CC(C)C[C@H](NC(=O)[C@H](CC(N)=O)NC(=O)[C@@H](N)CC(=O)O)C(=O)N[C@@H](Cc1ccc(O)cc1)C(=O)N[C@@H](Cc1ccc(OP(=O)(O)O)cc1)C(=O)N[C@@H](Cc1c[nH]c2ccccc12)C(=O)N[C@@H](CC(=O)O)C(=O)N[C@@H](CCC(N)=O)C(=O)N[C@@H](CC(=O)O)C(=O)N1CCC[C@H]1C(=O)N1CCC[C@H]1C(=O)N[C@@H](CCC(=O)O)C(=O)N[C@@H](CC(=O)O)C(=O)O [ErbB2 1222 13-mer] (HELM PEPTIDE1{D.N.L.Y.[O=C([C@H](Cc1ccc(OP(=O)(O)O)cc1)N[*:1])[*:2]].W.D.Q.D.P.P.E.D}$$$$V2.0)
pKd ([8]; Protein LCK, FP saturation binding, mean over replicate hits): 5.11
pKd ([9]; Protein LYN, FP saturation binding, mean over replicate hits): 5.38
pKd [1, 10]: 5.02
pKd [2, 11]: 4.99
pKd [7, 12]: 5.82
pKd [5]: 5.11
pKd [6]: 5.02

CSCC[C@H](NC(=O)[C@H](Cc1ccc(OP(=O)(O)O)cc1)NC(=O)[C@H](CCC(=O)O)NC(=O)[C@H](Cc1ccc(O)cc1)NC(=O)CNC(=O)[C@@H](N)CC(C)C)C(=O)N[C@@H](CC(=O)O)C(=O)N[C@H](C(=O)NCC(=O)N[C@@H](CO)C(=O)N[C@@H](CC(=O)O)C(=O)N[C@@H](CC(C)C)C(=O)N[C@@H](CC(=O)O)C(=O)O)C(C)C [ErbB3 1224 13-mer] (HELM PEPTIDE1{L.G.Y.E.[O=C([C@H](Cc1ccc(OP(=O)(O)O)cc1)N[*:1])[*:2]].M.D.V.G.S.D.L.D}$$$$V2.0)
pKd [8, 13]: 5.52
pKd ([9]; protein LYN, FP, mean of replicate hits): 5.16
pKd ([3]; protein PTK6, FP, mean of replicate hits): 5.18
pKd [7, 14]: 5.60
pKd [5]: 5.48

CSCC[C@H](NC(=O)[C@H](CCC(=O)O)NC(=O)[C@H](CCC(=O)O)NC(=O)[C@H](Cc1ccc(OP(=O)(O)O)cc1)NC(=O)CNC(=O)[C@H](CCC(N)=O)NC(=O)[C@H](CCC(=O)O)NC(=O)[C@@H](N)CO)C(=O)N[C@@H](CCCNC(=N)N)C(=O)N[C@@H](C)C(=O)N[C@@H](Cc1ccccc1)C(=O)N[C@@H](CCC(N)=O)C(=O)N[C@@H](CC(=O)O)C(=O)O [ErbB3 1289 13-mer] (HELM PEPTIDE1{S.E.Q.G.[O=C([C@H](Cc1ccc(OP(=O)(O)O)cc1)N[*:1])[*:2]].E.E.M.R.A.F.Q.D}$$$$V2.0)
pKd [8, 13]: 5.65
pKd ([1]; protein PIK3R3-N, FP, mean of replicate hits): 6.52
pKd [7, 14]: 5.23

CSCC[C@H](NC(=O)[C@H](Cc1ccc(OP(=O)(O)O)cc1)NC(=O)CNC(=O)[C@H](CCC(=O)O)NC(=O)[C@H](CCC(=O)O)NC(=O)[C@H](CC(=O)O)NC(=O)[C@H](CC(C)C)NC(=O)[C@H](CCC(=O)O)NC(=O)CNC(=O)[C@H](CCCNC(=N)N)NC(=O)[C@@H]1CCCN1)C(=O)N[C@H](C(=O)N1CCC[C@H]1C(=O)N[C@@H](CCSC)C(=O)N[C@@H](CCCNC(=N)N)C(=O)N[C@@H](CC(=O)O)C(=O)N[C@@H](CCCCN)C(=O)N[C@@H](CC(=O)O)C(=O)O)[C@@H](C)O [ErbB4 1150 18-mer] (HELM PEPTIDE1{P.R.G.E.L.D.E.E.G.[O=C([C@H](Cc1ccc(OP(=O)(O)O)cc1)N[*:1])[*:2]].M.T.P.M.R.D.K.D}$$$$V2.0)
pKd ([2]; protein PIK3R3-NC, FP, mean of replicate hits): 5.60
pKd ([4]; protein RASA1-NC, FP, mean of replicate hits): 6.39

CC(C)C[C@H](NC(=O)[C@H](Cc1ccc(OP(=O)(O)O)cc1)NC(=O)[C@H](CC(C)C)NC(=O)[C@@H]1CCCN1C(=O)[C@H](CCC(=O)O)NC(=O)[C@H](CC(N)=O)NC(=O)[C@@H](NC(=O)[C@H](Cc1ccc(O)cc1)NC(=O)[C@H](CCC(=O)O)NC(=O)[C@H](CC(=O)O)NC(=O)[C@@H](N)CCC(=O)O)C(C)C)C(=O)N[C@@H](CC(N)=O)C(=O)N[C@H](C(=O)N[C@@H](Cc1ccccc1)C(=O)N[C@@H](C)C(=O)N[C@@H](CC(N)=O)C(=O)N[C@H](C(=O)N[C@@H](CC(=O)O)C(=O)O)[C@@H](C)O)[C@@H](C)O [ErbB4 1208 18-mer] (HELM PEPTIDE1{E.D.E.Y.V.N.E.P.L.[O=C([C@H](Cc1ccc(OP(=O)(O)O)cc1)N[*:1])[*:2]].L.N.T.F.A.N.T.D}$$$$V2.0)
pKd ([9]; protein LYN, mean of replicate hits): 5.29
pKd ([2]; protein PIK3R3-NC, mean of replicate hits): 5.52
pKd ([3]; protein PTK6, mean of replicate hits): 4.81
pKd ([4]; protein RASA1-NC, mean of replicate hits): 5.19
